Reference: PubChem BioAssay (NCI)
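Five concentrations, 48 hours, 96-well plates. GI50 is the concentration that inhibits growth by half. At the TGI there is no net growth.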

Experiments:
Assay in all cases: NCI anticancer screen, dose series, 48 h
786-0 renal = system: 786-0 renal
EKVX NSCLC = system: EKVX NSCLC
LOX IMVI melanoma = system: LOX IMVI melanoma
A549 NSCLC = system: A549 NSCLC
HCC-2998 colon = system: HCC-2998 colon
NCI-H522 lung = system: NCI-H522 lung
OVCAR-4 ovarian = system: OVCAR-4 ovarian
HCT-116 colon = system: HCT-116 colon
UACC-62 melanoma = system: UACC-62 melanoma
RXF 393 renal = system: RXF 393 renal
SK-OV-3 ovarian = system: SK-OV-3 ovarian
SK-MEL-5 melanoma = system: SK-MEL-5 melanoma
DU-145 prostate = system: DU-145 prostate
SF-539 CNS = system: SF-539 CNS
COLO 205 colon = system: COLO 205 colon
NCI-H23 lung = system: NCI-H23 lung
NCI-H460 lung = system: NCI-H460 lung
SK-MEL-2 melanoma = system: SK-MEL-2 melanoma
SN12C renal = system: SN12C renal
HOP-62 NSCLC = system: HOP-62 NSCLC
HOP-92 NSCLC = system: HOP-92 NSCLC
SF-268 CNS = system: SF-268 CNS
TK-10 renal = system: TK-10 renal
MALME-3M melanoma = system: MALME-3M melanoma
NCI-H226 lung = system: NCI-H226 lung
SNB-19 CNS = system: SNB-19 CNS
A498 renal = system: A498 renal
MOLT-4 leukemia = system: MOLT-4 leukemia
HS 578T breast = system: HS 578T breast
BT-549 breast = system: BT-549 breast
CAKI-1 renal = system: CAKI-1 renal
ACHN renal = system: ACHN renal
OVCAR-5 ovarian = system: OVCAR-5 ovarian
SW-620 colon = system: SW-620 colon
SNB-75 CNS = system: SNB-75 CNS
CCRF-CEM leukemia = system: CCRF-CEM leukemia
SF-295 CNS = system: SF-295 CNS
T-47D breast = system: T-47D breast
K-562 leukemia = system: K-562 leukemia
MDA-MB-468 breast = system: MDA-MB-468 breast
MCF7 breast = system: MCF7 breast
NCI/ADR-RES ovarian = system: NCI/ADR-RES ovarian
SR leukemia = system: SR leukemia
UO-31 renal = system: UO-31 renal
HT29 colon = system: HT29 colon
U251 CNS = system: U251 CNS
HL-60(TB) leukemia = system: HL-60(TB) leukemia
M14 melanoma = system: M14 melanoma
OVCAR-3 ovarian = system: OVCAR-3 ovarian
UACC-257 melanoma = system: UACC-257 melanoma
KM12 colon = system: KM12 colon
RPMI-8226 leukemia = system: RPMI-8226 leukemia
SK-MEL-28 melanoma = system: SK-MEL-28 melanoma
MDA-MB-435 = system: MDA-MB-435
OVCAR-8 ovarian = system: OVCAR-8 ovarian
MDA-MB-231 breast = system: MDA-MB-231 breast
IGROV1 ovarian = system: IGROV1 ovarian
HCT-15 colon = system: HCT-15 colon

CCN1CCN(Cc2ccc(C(=O)Nc3cccc(-c4cn(-c5ccc6oc(=O)ccc6c5)nn4)c3)cc2C(F)(F)F)CC1
GI50 (786-0 renal): 2.05 µM | TGI (786-0 renal): 4.05 µM | GI50 (EKVX NSCLC): 3.81 µM | TGI (EKVX NSCLC): 14.6 µM | GI50 (LOX IMVI melanoma): 1.69 µM | TGI (LOX IMVI melanoma): 3.06 µM | GI50 (A549 NSCLC): 1.79 µM | TGI (A549 NSCLC): 3.64 µM | GI50 (HCC-2998 colon): 2.52 µM | TGI (HCC-2998 colon): 5.47 µM | GI50 (NCI-H522 lung): 17.2 µM | TGI (NCI-H522 lung): 30.9 µM | GI50 (OVCAR-4 ovarian): 13.9 µM | TGI (OVCAR-4 ovarian): 27.6 µM | GI50 (HCT-116 colon): 1.82 µM | TGI (HCT-116 colon): 3.68 µM | GI50 (UACC-62 melanoma): 12.3 µM | TGI (UACC-62 melanoma): 24.7 µM | GI50 (RXF 393 renal): 1.77 µM | TGI (RXF 393 renal): 3.47 µM | GI50 (SK-OV-3 ovarian): 21.7 µM | TGI (SK-OV-3 ovarian): 79.4 µM | GI50 (SK-MEL-5 melanoma): 5.5 µM | TGI (SK-MEL-5 melanoma): 18 µM | GI50 (DU-145 prostate): 15.8 µM | TGI (DU-145 prostate): 29.2 µM | GI50 (SF-539 CNS): 12.2 µM | TGI (SF-539 CNS): 24.6 µM | GI50 (COLO 205 colon): > 100 µM | TGI (COLO 205 colon): > 100 µM | GI50 (NCI-H23 lung): 1.79 µM | TGI (NCI-H23 lung): 3.56 µM | GI50 (NCI-H460 lung): 3.61 µM | TGI (NCI-H460 lung): 12.6 µM | GI50 (SK-MEL-2 melanoma): 58.3 µM | TGI (SK-MEL-2 melanoma): > 100 µM | GI50 (SN12C renal): 14.3 µM | TGI (SN12C renal): 27.4 µM | GI50 (HOP-62 NSCLC): 16.4 µM | TGI (HOP-62 NSCLC): 31.4 µM | GI50 (HOP-92 NSCLC): 11.1 µM | TGI (HOP-92 NSCLC): 39.8 µM | GI50 (SF-268 CNS): 18.1 µM | TGI (SF-268 CNS): 45.6 µM | GI50 (TK-10 renal): 19.9 µM | TGI (TK-10 renal): 34.1 µM | GI50 (MALME-3M melanoma): 1.6 µM | TGI (MALME-3M melanoma): 3 µM | GI50 (NCI-H226 lung): 13.6 µM | TGI (NCI-H226 lung): 27 µM | GI50 (SNB-19 CNS): 17.3 µM | TGI (SNB-19 CNS): 31.1 µM | GI50 (A498 renal): 29.1 µM | TGI (A498 renal): > 100 µM | GI50 (MOLT-4 leukemia): 2.88 µM | TGI (MOLT-4 leukemia): 12.9 µM | GI50 (HS 578T breast): 18.2 µM | TGI (HS 578T breast): 67 µM | GI50 (BT-549 breast): > 100 µM | TGI (BT-549 breast): > 100 µM | GI50 (CAKI-1 renal): 16.5 µM | TGI (CAKI-1 renal): 39.7 µM | GI50 (ACHN renal): 10.9 µM | TGI (ACHN renal): 22.9 µM | GI50 (OVCAR-5 ovarian): 16.2 µM | TGI (OVCAR-5 ovarian): 29.7 µM | GI50 (SW-620 colon): 1.71 µM | TGI (SW-620 colon): 3.41 µM | GI50 (SNB-75 CNS): 12.2 µM | TGI (SNB-75 CNS): 24.6 µM | GI50 (CCRF-CEM leukemia): 2.23 µM | TGI (CCRF-CEM leukemia): 8.3 µM | GI50 (SF-295 CNS): 14.8 µM | TGI (SF-295 CNS): 28 µM | GI50 (T-47D breast): > 100 µM | TGI (T-47D breast): > 100 µM | GI50 (K-562 leukemia): 2.34 µM | TGI (K-562 leukemia): 7.26 µM | GI50 (MDA-MB-468 breast): 12.3 µM | TGI (MDA-MB-468 breast): 27.4 µM | GI50 (MCF7 breast): 1.68 µM | TGI (MCF7 breast): 3.2 µM | GI50 (NCI/ADR-RES ovarian): 1.82 µM | TGI (NCI/ADR-RES ovarian): 3.54 µM | GI50 (SR leukemia): 6.47 µM | TGI (SR leukemia): 52.6 µM | GI50 (UO-31 renal): 10.6 µM | TGI (UO-31 renal): 22.4 µM | GI50 (HT29 colon): 1.77 µM | TGI (HT29 colon): 3.72 µM | GI50 (U251 CNS): 1.91 µM | TGI (U251 CNS): 4.03 µM | GI50 (HL-60(TB) leukemia): 30.1 µM | TGI (HL-60(TB) leukemia): > 100 µM | GI50 (M14 melanoma): 2.46 µM | TGI (M14 melanoma): 6.86 µM | GI50 (OVCAR-3 ovarian): 16.5 µM | TGI (OVCAR-3 ovarian): 30 µM | GI50 (UACC-257 melanoma): 19.2 µM | TGI (UACC-257 melanoma): 43.3 µM | GI50 (KM12 colon): 5.37 µM | TGI (KM12 colon): 17.6 µM | GI50 (RPMI-8226 leukemia): 2.62 µM | TGI (RPMI-8226 leukemia): 12.2 µM | GI50 (SK-MEL-28 melanoma): 1.81 µM | TGI (SK-MEL-28 melanoma): 3.29 µM | GI50 (MDA-MB-435): 1.76 µM | TGI (MDA-MB-435): 3.6 µM | GI50 (OVCAR-8 ovarian): 7.71 µM | TGI (OVCAR-8 ovarian): 20.3 µM | GI50 (MDA-MB-231 breast): 1.78 µM | TGI (MDA-MB-231 breast): 3.2 µM | GI50 (IGROV1 ovarian): 10.5 µM | TGI (IGROV1 ovarian): 22.3 µM | GI50 (HCT-15 colon): 1.78 µM | TGI (HCT-15 colon): 3.45 µM
